Experimental data as given in patent US20260262643A1, “HERBICIDAL BENZOXAZINES” (FMC CORPORATION, priority 2022, published 2026).

What was measured:
ragweed [1] = assay: Test C postemergence; type: in vivo, Ambrosia artemisiifolia; settings: Postemergence, 1000 g ai/ha
Source text: (§1) Seeds of plant species selected from barnyardgrass (Echinochloa crusgalli), blackgrass (Alopecurus myosuroides), corn (Zea mays), foxtail, giant (giant foxtail, Setaria faberi), green foxtail (Setaria viridis), goosegrass (Eleusine indica), kochia (Bassia scoparia), oat, wild (wild oat, Avena fatua), pigweed, palmer (palmer amaranth, palmer pigweed, Amaranthus palmeri), Pigweed, Redroot (redroot pigweed, Amaranthus retroflexus), ragweed (common ragweed, Ambrosia artemisiifolia), ryegrass, Italian ([…] ryegrass, Lolium multiflorum), soybean (Glycine max), and wheat (Triticum aestivum) were planted into a blend of loam soil and sand and treated preemergence with a directed soil spray using test chemicals formulated in a non-phytotoxic solvent mixture which included a surfactant. At the same time, plants selected from these crops and weed species and also galium (catchweed bedstraw, Galium aparine) and horseweed (Erigeron canadensis) were planted in pots containing the same blend of loam soil and sand and treated with postemergence applications of test chemicals formulated in the same manner. Plants ranged in height from 2 to 10 cm and were in the one- to two-leaf stage for the postemergence treatment. Treated plants and untreated controls were maintained in a greenhouse for 10 days, after which time all treated plants were compared to untreated controls and visually evaluated for injury. Plant response ratings, summarized in Table C, are based on a 0 to 100 scale where 0 is no effect and 100 is complete control. A dash (-) response means no test result.

ryegrass, Italian [2] = assay: Test C preemergence; type: in vivo, Lolium multiflorum; settings: Preemergence, 1000 g ai/ha; visual rating after 10 days, 0 to 100 scale (0 no effect, 100 complete control)
Source text: as §1

green foxtail [3] = assay: Test C preemergence; type: in vivo, Setaria viridis; settings: Preemergence, 1000 g ai/ha; visual rating after 10 days, 0 to 100 scale (0 no effect, 100 complete control)
Source text: as §1

pigweed, palmer [4] = assay: Test C preemergence; type: in vivo, Amaranthus palmeri; settings: Preemergence, 1000 g ai/ha; visual rating after 10 days, 0 to 100 scale (0 no effect, 100 complete control)
Source text: as §1

blackgrass [5] = assay: Test C preemergence; type: in vivo, Alopecurus myosuroides; settings: Preemergence, 1000 g ai/ha; visual rating after 10 days, 0 to 100 scale (0 no effect, 100 complete control)
Source text: as §1

kochia [6] = assay: Test C postemergence; type: in vivo, Bassia scoparia; settings: Postemergence, 1000 g ai/ha
Source text: as §1

blackgrass [7] = assay: Test C postemergence; type: in vivo, Alopecurus myosuroides; settings: Postemergence, 1000 g ai/ha
Source text: as §1

green foxtail [8] = assay: Test C postemergence; type: in vivo, Setaria viridis; settings: Postemergence, 1000 g ai/ha
Source text: as §1

ragweed [9] = assay: Test C preemergence; type: in vivo, Ambrosia artemisiifolia; settings: Preemergence, 1000 g ai/ha; visual rating after 10 days, 0 to 100 scale (0 no effect, 100 complete control)
Source text: as §1

horseweed = assay: Test C postemergence; type: in vivo, Erigeron canadensis; settings: Postemergence, 1000 g ai/ha
Source text: as §1

galium = assay: Test C postemergence; type: in vivo, Galium aparine; settings: Postemergence, 1000 g ai/ha
Source text: as §1

kochia [10] = assay: Test C preemergence; type: in vivo, Bassia scoparia; settings: Preemergence, 1000 g ai/ha; visual rating after 10 days, 0 to 100 scale (0 no effect, 100 complete control)
Source text: as §1

pigweed, palmer [11] = assay: Test C postemergence; type: in vivo, Amaranthus palmeri; settings: Postemergence, 1000 g ai/ha
Source text: as §1

barnyardgrass [12] = assay: Test C postemergence; type: in vivo, Echinochloa crusgalli; settings: Postemergence, 1000 g ai/ha
Source text: as §1

barnyardgrass [13] = assay: Test C preemergence; type: in vivo, Echinochloa crusgalli; settings: Preemergence, 1000 g ai/ha; visual rating after 10 days, 0 to 100 scale (0 no effect, 100 complete control)
Source text: as §1

ryegrass, Italian [14] = assay: Test C postemergence; type: in vivo, Lolium multiflorum; settings: Postemergence, 1000 g ai/ha
Source text: as §1

[15] = 10 days, visual 0 to 100 scale (0 no effect, 100 complete control)
[16] = 0 to 100 scale, 0 no effect, 100 complete control

| SMILES | Plant response rating, Ragweed (ragweed [1]; [15]) | Plant response rating, Ryegrass, Italian (ryegrass, Italian [2]) | Plant response rating, Foxtail, Green (green foxtail [3]) | Plant response rating, Pigweed, Palmer (pigweed, palmer [4]) | Plant response rating, Blackgrass (blackgrass [5]) | Plant response rating, Kochia (kochia [6]; [15]) | Plant response rating, Blackgrass (blackgrass [7]; [15]) | Plant response rating, Foxtail, Green (green foxtail [8]; [15]) | Plant response rating, Ragweed (ragweed [9]) | Plant response rating, Horseweed (horseweed; [15]) | Plant response rating, Galium (galium; [15]) | Plant response rating, Kochia (kochia [10]) | Plant response rating, Pigweed, Palmer (pigweed, palmer [11]; [15]) | Plant response rating, Barnyardgrass (barnyardgrass [12]; [15]) | Plant response rating, Barnyardgrass (barnyardgrass [13]) | Plant response rating, Ryegrass, Italian (ryegrass, Italian [14]; [15]) | Plant response rating, Ragweed (ragweed [1]; [16]) | Plant response rating, Kochia (kochia [6]; [16]) | Plant response rating, Blackgrass (blackgrass [7]; [16]) | Plant response rating, Barnyardgrass (barnyardgrass [12]; [16]) | other results |
| --- | --- | --- | --- | --- | --- | --- | --- | --- | --- | --- | --- | --- | --- | --- | --- | --- | --- | --- | --- | --- | --- |
| CCOC(=O)c1cncn1-c1cccc(C(=O)N2C[C@H](C)Oc3c(C)cccc32)c1 [Compound 298] | 40 | 0 | 30 | 40 | 0 | 0 | 0 | 0 | 0 | 0 | 20 | 50 | 0 | 0 | 0 | 0 |  |  |  |  |  |
| Cc1ccc(-c2cccc(C(=O)N3C[C@H](C)Oc4c(Cl)cccc43)c2)o1 [Compound 204] |  | 40 | 0 | 10 | 0 |  |  |  | 0 |  |  | 20 |  |  | 0 |  | 20 | 0 | 0 | 0 | Plant response rating, Foxtail, Green (green foxtail [8]; [16]): 0; Plant response rating, Horseweed (horseweed; [16]): 0; Plant response rating, Galium (galium; [16]): 50; Plant response rating, Pigweed, Palmer (pigweed, palmer [11]; [16]): 10; Plant response rating, Ryegrass, Italian (ryegrass, Italian [14]; [16]): 0 |
| Cc1cnc(-c2cccc(C(=O)N3C[C@H](C)Oc4c(C)cccc43)c2)s1 [Compound 243] | 0 | 70 | 70 | 0 | 0 | 10 | 0 | 0 | 30 | 40 | 60 | 0 | 60 |  | 60 | 50 |  |  |  | 10 |  |
| C[C@H]1CN(C(=O)c2cccc(N3CCOCC3)c2)c2cccc(Cl)c2O1 [Compound 166] |  | 0 | 0 | 0 | 0 |  |  |  | 0 |  |  | 0 |  |  | 0 |  | 0 | 0 | 0 | 0 | Plant response rating, Foxtail, Green (green foxtail [8]; [16]): 0; Plant response rating, Horseweed (horseweed; [16]): 0; Plant response rating, Galium (galium; [16]): 20; Plant response rating, Pigweed, Palmer (pigweed, palmer [11]; [16]): 10; Plant response rating, Ryegrass, Italian (ryegrass, Italian [14]; [16]): 0 |
| COc1ccc(-c2cccc(C(=O)N3C[C@H](C)Oc4c(Cl)cccc43)c2)cn1 [Compound 385] | 50 | 50 | 90 | 50 | 0 | 70 | 30 | 20 | 0 | 0 | 60 | 0 | 70 | 20 | 30 | 10 |  |  |  |  |  |
| Cc1nsc(-c2cccc(C(=O)N3C[C@H](C)Oc4c(Cl)cccc43)c2)n1 [Compound 390] | 30 | 80 | 100 | 90 | 20 | 70 | 50 | 20 | 30 | 0 | 80 | 50 | 80 | 50 | 80 | 20 |  |  |  |  |  |
| Cc1ccc(-c2cccc(C(=O)N3C[C@H](C)Oc4c(C)cccc43)c2)s1 [Compound 244] | 20 | 90 | 50 | 0 | 0 | 50 | 20 | 20 | 50 | 90 | 60 | 0 | 60 |  | 50 | 80 |  |  |  | 20 |  |
| Cc1ccc(-c2cccc(C(=O)N3C[C@H](C)Oc4c(C)cccc43)c2)nn1 [Compound 160] |  | 40 | 30 | 20 | 0 |  |  |  | 0 |  |  | 70 |  |  | 30 |  | 0 | 70 | 20 | 10 | Plant response rating, Foxtail, Green (green foxtail [8]; [16]): 40; Plant response rating, Horseweed (horseweed; [16]): 0; Plant response rating, Galium (galium; [16]): 50; Plant response rating, Pigweed, Palmer (pigweed, palmer [11]; [16]): 0; Plant response rating, Ryegrass, Italian (ryegrass, Italian [14]; [16]): 0 |
| Cc1cccc2c1O[C@@H](C)CN2C(=O)c1cccc(-n2cnc(Cl)c2)c1 [Compound 304] | 0 | 90 | 100 | 70 | 70 | 40 | 30 | 20 | 0 | 0 | 70 | 10 | 20 | 10 | 60 | 0 |  |  |  |  |  |
| Cc1cccc2c1O[C@@H](C)CN2C(=O)c1cccc(-n2cncc2Br)c1 [Compound 297] | 0 | 0 | 0 | 0 | 0 | 30 | 0 | 0 | 0 | 20 | 0 | 0 | 0 | 0 | 0 | 0 |  |  |  |  |  |
